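Growth conditions: 96-well plates. Treatment: test compound, 48 hours, 5 concentrations. Analysis: linear interpolation between bracketing concentrations; unreached endpoints set to highest concentration. TGI: concentration producing complete growth inhibition.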
How the values were obtained:
Test in all cases: NCI tumour cell line growth inhibition, 48 h
786-0 renal = system: 786-0 renal
A498 renal = system: A498 renal
A549 NSCLC = system: A549 NSCLC
ACHN renal = system: ACHN renal
CAKI-1 renal = system: CAKI-1 renal
CCRF-CEM leukemia = system: CCRF-CEM leukemia
COLO 205 colon = system: COLO 205 colon
DMS 273 small cell lung = system: DMS 273 small cell lung
EKVX NSCLC = system: EKVX NSCLC
HCT-116 colon = system: HCT-116 colon
HCT-15 colon = system: HCT-15 colon
HL-60(TB) leukemia = system: HL-60(TB) leukemia
HOP-62 NSCLC = system: HOP-62 NSCLC
HOP-92 NSCLC = system: HOP-92 NSCLC
HT29 colon = system: HT29 colon
IGROV1 ovarian = system: IGROV1 ovarian
K-562 leukemia = system: K-562 leukemia
KM12 colon = system: KM12 colon
KM20L2 colon = system: KM20L2 colon
LOX IMVI melanoma = system: LOX IMVI melanoma
LXFL 529 NSCLC = system: LXFL 529 NSCLC
M14 melanoma = system: M14 melanoma
MOLT-4 leukemia = system: MOLT-4 leukemia
NCI-H226 lung = system: NCI-H226 lung
NCI-H23 lung = system: NCI-H23 lung
NCI-H460 lung = system: NCI-H460 lung
NCI-H522 lung = system: NCI-H522 lung
OVCAR-3 ovarian = system: OVCAR-3 ovarian
OVCAR-4 ovarian = system: OVCAR-4 ovarian
OVCAR-5 ovarian = system: OVCAR-5 ovarian
OVCAR-8 ovarian = system: OVCAR-8 ovarian
RPMI-8226 leukemia = system: RPMI-8226 leukemia
RXF 393 renal = system: RXF 393 renal
RXF-631 renal = system: RXF-631 renal
SF-268 CNS = system: SF-268 CNS
SF-295 CNS = system: SF-295 CNS
SF-539 CNS = system: SF-539 CNS
SK-MEL-2 melanoma = system: SK-MEL-2 melanoma
SK-MEL-28 melanoma = system: SK-MEL-28 melanoma
SK-MEL-5 melanoma = system: SK-MEL-5 melanoma
SN12C renal = system: SN12C renal
SNB-19 CNS = system: SNB-19 CNS
SNB-78 CNS = system: SNB-78 CNS
SR leukemia = system: SR leukemia
SW-620 colon = system: SW-620 colon
TK-10 renal = system: TK-10 renal
U251 CNS = system: U251 CNS
UACC-257 melanoma = system: UACC-257 melanoma
UACC-62 melanoma = system: UACC-62 melanoma
UO-31 renal = system: UO-31 renal
XF 498 CNS = system: XF 498 CNS
BT-549 breast = system: BT-549 breast
DLD-1 colon = system: DLD-1 colon
DMS 114 small cell lung = system: DMS 114 small cell lung
DU-145 prostate = system: DU-145 prostate
HCC-2998 colon = system: HCC-2998 colon
HOP-18 NSCLC = system: HOP-18 NSCLC
HS 578T breast = system: HS 578T breast
M19-MEL melanoma = system: M19-MEL melanoma
MALME-3M melanoma = system: MALME-3M melanoma
MCF7 breast = system: MCF7 breast
MDA-MB-231 breast = system: MDA-MB-231 breast
MDA-MB-435 = system: MDA-MB-435
MDA-N = system: MDA-N
NCI/ADR-RES ovarian = system: NCI/ADR-RES ovarian
PC-3 prostate = system: PC-3 prostate
SK-OV-3 ovarian = system: SK-OV-3 ovarian
SNB-75 CNS = system: SNB-75 CNS
T-47D breast = system: T-47D breast

## NC(=O)Nc1c([N+](=O)[O-])cc(C(F)(F)F)cc1[N+](=O)[O-]
786-0 renal
  TGI: > 100 µM
A498 renal
  TGI: > 100 µM
A549 NSCLC
  TGI: > 100 µM
ACHN renal
  TGI: > 100 µM
CAKI-1 renal
  TGI: > 100 µM
CCRF-CEM leukemia
  TGI: > 100 µM
COLO 205 colon
  TGI: 98.1 µM
DMS 273 small cell lung
  TGI: > 100 µM
EKVX NSCLC
  TGI: > 100 µM
HCT-116 colon
  TGI: > 100 µM
HCT-15 colon
  TGI: > 100 µM
HL-60(TB) leukemia
  TGI: > 100 µM
HOP-62 NSCLC
  TGI: > 100 µM
HOP-92 NSCLC
  TGI: > 100 µM
HT29 colon
  TGI: > 100 µM
IGROV1 ovarian
  TGI: > 100 µM
K-562 leukemia
  TGI: > 100 µM
KM12 colon
  TGI: > 100 µM
KM20L2 colon
  TGI: 80.6 µM
LOX IMVI melanoma
  TGI: > 100 µM
LXFL 529 NSCLC
  TGI: > 100 µM
M14 melanoma
  TGI: > 100 µM
MOLT-4 leukemia
  TGI: > 100 µM
NCI-H226 lung
  TGI: > 100 µM
NCI-H23 lung
  TGI: > 100 µM
NCI-H460 lung
  TGI: > 100 µM
NCI-H522 lung
  TGI: > 100 µM
OVCAR-3 ovarian
  TGI: 82.5 µM
OVCAR-4 ovarian
  TGI: > 100 µM
OVCAR-5 ovarian
  TGI: > 100 µM
OVCAR-8 ovarian
  TGI: > 100 µM
RPMI-8226 leukemia
  TGI: > 100 µM
RXF 393 renal
  TGI: > 100 µM
RXF-631 renal
  TGI: > 100 µM
SF-268 CNS
  TGI: > 100 µM
SF-295 CNS
  TGI: > 100 µM
SF-539 CNS
  TGI: > 100 µM
SK-MEL-2 melanoma
  TGI: > 100 µM
SK-MEL-28 melanoma
  TGI: > 100 µM
SK-MEL-5 melanoma
  TGI: > 100 µM
SN12C renal
  TGI: > 100 µM
SNB-19 CNS
  TGI: > 100 µM
SNB-78 CNS
  TGI: > 100 µM
SR leukemia
  TGI: > 100 µM
SW-620 colon
  TGI: > 100 µM
TK-10 renal
  TGI: > 100 µM
U251 CNS
  TGI: > 100 µM
UACC-257 melanoma
  TGI: > 100 µM
UACC-62 melanoma
  TGI: > 100 µM
UO-31 renal
  TGI: > 100 µM
XF 498 CNS
  TGI: > 100 µM

## CC(C(=O)O)/C(=C\c1ccc2c(c1)OCO2)C(=O)O (stereo not drawn)
786-0 renal
  TGI: > 100 µM
A498 renal
  TGI: > 100 µM
A549 NSCLC
  TGI: > 100 µM
ACHN renal
  TGI: > 100 µM
BT-549 breast
  TGI: > 100 µM
CAKI-1 renal
  TGI: > 100 µM
COLO 205 colon
  TGI: > 100 µM
DLD-1 colon
  TGI: > 100 µM
DMS 114 small cell lung
  TGI: > 100 µM
DMS 273 small cell lung
  TGI: > 100 µM
DU-145 prostate
  TGI: > 100 µM
EKVX NSCLC
  TGI: > 100 µM
HCC-2998 colon
  TGI: > 100 µM
HCT-116 colon
  TGI: > 100 µM
HCT-15 colon
  TGI: > 100 µM
HL-60(TB) leukemia
  TGI: 0.21 µM
HOP-18 NSCLC
  TGI: > 100 µM
HOP-62 NSCLC
  TGI: > 100 µM
HOP-92 NSCLC
  TGI: > 100 µM
HS 578T breast
  TGI: > 100 µM
HT29 colon
  TGI: > 82.2 µM
IGROV1 ovarian
  TGI: > 100 µM
K-562 leukemia
  TGI: > 100 µM
KM12 colon
  TGI: > 100 µM
KM20L2 colon
  TGI: > 100 µM
LOX IMVI melanoma
  TGI: > 100 µM
LXFL 529 NSCLC
  TGI: > 100 µM
M14 melanoma
  TGI: > 100 µM
M19-MEL melanoma
  TGI: > 100 µM
MALME-3M melanoma
  TGI: > 100 µM
MCF7 breast
  TGI: > 100 µM
MDA-MB-231 breast
  TGI: > 100 µM
MDA-MB-435
  TGI: > 100 µM
MDA-N
  TGI: > 100 µM
MOLT-4 leukemia
  TGI: > 21.9 µM
NCI-H226 lung
  TGI: > 100 µM
NCI-H23 lung
  TGI: > 100 µM
NCI-H460 lung
  TGI: > 100 µM
NCI-H522 lung
  TGI: > 100 µM
NCI/ADR-RES ovarian
  TGI: > 100 µM
OVCAR-3 ovarian
  TGI: > 100 µM
OVCAR-4 ovarian
  TGI: > 100 µM
OVCAR-5 ovarian
  TGI: > 61.5 µM
OVCAR-8 ovarian
  TGI: > 100 µM
PC-3 prostate
  TGI: > 100 µM
RPMI-8226 leukemia
  TGI: > 100 µM
RXF 393 renal
  TGI: > 100 µM
RXF-631 renal
  TGI: > 100 µM
SF-268 CNS
  TGI: > 100 µM
SF-295 CNS
  TGI: > 100 µM
SF-539 CNS
  TGI: > 100 µM
SK-MEL-2 melanoma
  TGI: > 100 µM
SK-MEL-28 melanoma
  TGI: > 100 µM
SK-MEL-5 melanoma
  TGI: > 100 µM
SK-OV-3 ovarian
  TGI: > 100 µM
SN12C renal
  TGI: > 100 µM
SNB-19 CNS
  TGI: > 100 µM
SNB-75 CNS
  TGI: > 100 µM
SR leukemia
  TGI: > 100 µM
SW-620 colon
  TGI: > 100 µM
T-47D breast
  TGI: > 100 µM
TK-10 renal
  TGI: > 100 µM
U251 CNS
  TGI: > 100 µM
UACC-257 melanoma
  TGI: > 100 µM
UACC-62 melanoma
  TGI: > 100 µM
UO-31 renal
  TGI: > 100 µM
XF 498 CNS
  TGI: > 100 µM

Reference: PubChem BioAssay (NCI)
